Experimental data published in patent US8916565B2, “Pyrrolopyrazine-spirocyclic piperidine amides as modulators of ion channels” (priority 2011, dated 2014).

The molecules below were run against human NaV subtype, like NaV 1.7 (Homo sapiens, UniProt Q15858) (assay: E-VIPR optical membrane potential assay with electrical stimulation). Conditions: active against one or more sodium channels; Table 3 does not name the assay or NaV subtype; read-out: Binned Activity Data (IC50).
Type: cell-based

Chain of human NaV subtype, like NaV 1.7 (Q15858 whole entry): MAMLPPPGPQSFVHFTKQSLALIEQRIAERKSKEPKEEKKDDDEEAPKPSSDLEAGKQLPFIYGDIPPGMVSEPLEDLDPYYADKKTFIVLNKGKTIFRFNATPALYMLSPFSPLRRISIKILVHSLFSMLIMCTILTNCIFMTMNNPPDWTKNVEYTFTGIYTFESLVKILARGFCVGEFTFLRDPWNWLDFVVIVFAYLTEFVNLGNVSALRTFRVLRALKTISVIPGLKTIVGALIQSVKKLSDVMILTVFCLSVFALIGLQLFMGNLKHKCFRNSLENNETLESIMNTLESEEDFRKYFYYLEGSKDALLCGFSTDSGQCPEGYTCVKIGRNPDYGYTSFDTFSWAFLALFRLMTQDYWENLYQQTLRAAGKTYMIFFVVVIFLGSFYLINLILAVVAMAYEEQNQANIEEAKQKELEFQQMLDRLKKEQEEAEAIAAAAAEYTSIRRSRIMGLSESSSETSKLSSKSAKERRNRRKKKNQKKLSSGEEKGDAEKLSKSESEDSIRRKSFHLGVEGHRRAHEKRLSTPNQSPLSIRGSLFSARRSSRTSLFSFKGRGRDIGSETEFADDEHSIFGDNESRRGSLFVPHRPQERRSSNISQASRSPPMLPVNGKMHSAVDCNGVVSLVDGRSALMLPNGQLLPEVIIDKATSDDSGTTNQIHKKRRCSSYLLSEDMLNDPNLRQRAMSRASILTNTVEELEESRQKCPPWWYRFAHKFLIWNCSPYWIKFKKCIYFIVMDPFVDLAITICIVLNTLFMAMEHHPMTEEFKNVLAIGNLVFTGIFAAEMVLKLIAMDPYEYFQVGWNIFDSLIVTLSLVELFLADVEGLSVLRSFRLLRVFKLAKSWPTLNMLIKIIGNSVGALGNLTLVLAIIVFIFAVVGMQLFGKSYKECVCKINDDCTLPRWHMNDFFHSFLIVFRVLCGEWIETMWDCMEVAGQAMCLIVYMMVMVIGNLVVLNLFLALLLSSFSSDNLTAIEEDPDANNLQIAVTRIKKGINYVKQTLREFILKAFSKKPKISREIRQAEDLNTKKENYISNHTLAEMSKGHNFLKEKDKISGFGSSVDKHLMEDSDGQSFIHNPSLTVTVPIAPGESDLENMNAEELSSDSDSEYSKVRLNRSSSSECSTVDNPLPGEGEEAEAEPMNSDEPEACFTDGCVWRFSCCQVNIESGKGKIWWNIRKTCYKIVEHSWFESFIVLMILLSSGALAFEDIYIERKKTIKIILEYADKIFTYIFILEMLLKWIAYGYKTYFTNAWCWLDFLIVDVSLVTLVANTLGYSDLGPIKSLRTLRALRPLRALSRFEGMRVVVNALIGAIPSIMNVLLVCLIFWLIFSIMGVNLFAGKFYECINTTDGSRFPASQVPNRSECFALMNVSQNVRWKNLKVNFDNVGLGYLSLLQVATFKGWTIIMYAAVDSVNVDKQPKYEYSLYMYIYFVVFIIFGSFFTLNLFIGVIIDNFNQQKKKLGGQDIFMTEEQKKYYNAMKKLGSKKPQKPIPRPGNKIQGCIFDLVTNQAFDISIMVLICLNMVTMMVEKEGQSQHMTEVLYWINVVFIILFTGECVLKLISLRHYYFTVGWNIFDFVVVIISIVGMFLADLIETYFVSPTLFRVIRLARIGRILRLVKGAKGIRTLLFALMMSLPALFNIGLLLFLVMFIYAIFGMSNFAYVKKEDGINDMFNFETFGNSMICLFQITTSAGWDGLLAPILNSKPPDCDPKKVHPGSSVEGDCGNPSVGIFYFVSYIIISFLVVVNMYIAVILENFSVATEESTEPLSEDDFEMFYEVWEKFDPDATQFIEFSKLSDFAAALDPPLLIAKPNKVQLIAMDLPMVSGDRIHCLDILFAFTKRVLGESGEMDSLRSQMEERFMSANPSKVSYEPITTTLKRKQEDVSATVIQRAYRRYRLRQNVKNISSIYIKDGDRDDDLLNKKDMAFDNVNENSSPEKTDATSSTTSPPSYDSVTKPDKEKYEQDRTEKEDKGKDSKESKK

Structure (SMILES) | IC50 [nM]
CN1CCn2c(Cl)ccc2C12CCN(C(=O)c1ccc(N3CCCCC3)cc1)CC2 [Compound 195] | > 5000
CCNS(=O)(=O)c1ccc(C(=O)N2CCC3(CC2)c2ccc(Cl)n2CCN3C)cc1 [Compound 24] | 2000 to 5000
CN1CCn2c(C(F)(F)F)cc(F)c2C12CCN(C(=O)c1ccc(S(=O)(=O)NC3CC3)cc1)CC2 [Compound 666] | ≤ 2000
CC(C)Oc1ccc(C(=O)N2CCC3(CC2)c2ccc(C(=O)C(F)(F)F)n2CCN3C)cc1CO [Compound 160] | ≤ 2000
Cc1cc(C(=O)N2CCC3(CC2)c2ccc(C(=O)C(C)(C)C)n2CCN3C)ccc1S(=O)(=O)C(C)C [Compound 654] | ≤ 2000
CCC(C)(C)c1ccc(C(=O)N2CCC3(CC2)c2ccc(C(C)=O)n2CCN3C)cc1 [Compound 67] | > 5000
CC(C)Oc1ccc(C(=O)N2CCC3(CC2)c2ccc(CC(F)(F)F)n2CCN3C)cc1Cl [Compound 11] | ≤ 2000
Cc1cc(C(=O)N2CCC3(CC2)c2ccc(Cl)n2CCN3C)ccc1S(=O)(=O)C(C)C [Compound 750] | > 5000
CN1CCn2c(C(=O)C(F)(F)F)ccc2C12CCN(C(=O)c1ccc(C3CC3)cc1)CC2 [Compound 389] | ≤ 2000
CCc1ccc(C(=O)N2CCC3(CC2)c2ccc(C(=O)C(F)(F)F)n2CCN3C)cc1 [Compound 26] | 2000 to 5000
CC[C@@H](C)Oc1ccc(C(=O)N2CCC3(CC2)c2ccc(C(F)(F)C(F)(F)F)n2CCN3C)cc1OC [Compound 412] | ≤ 2000
CN1CCn2c(Cl)ccc2C12CCN(C(=O)c1ccc(OCc3ccccc3)cc1)CC2 [Compound 68] | 2000 to 5000
Cc1cc(C(=O)N2CCC3(CC2)c2ccc(C(=O)C(F)(F)F)n2CCN3C)ccc1-c1cnn(C)c1 [Compound 383] | 2000 to 5000
Cc1cc(C(=O)N2CCC3(CC2)c2ccc(C(=O)C(F)(F)F)n2CCN3C)ccc1O [Compound 201] | ≤ 2000
CC1(C)Cn2c(C(=O)C(F)(F)F)ccc2C2(CCN(C(=O)c3ccc(C(C)(C)O)c(F)c3)CC2)N1 [Compound 254] | ≤ 2000
Cc1nc(C(=O)N2CCC3(CC2)c2ccc(C(=O)C(F)(F)F)n2C(C)CN3C)ccc1OC(C)C (stereo not shown) [Compound 556] | ≤ 2000
CN1CCn2c(C(=O)C(F)(F)F)ccc2C12CCN(C(=O)c1ccc(O)c(Cl)c1)CC2 [Compound 635] | 2000 to 5000
CN1CCn2c(C(F)(F)F)ccc2C12CCN(C(=O)c1cccnc1N1CCCCC1)CC2 [Compound 346] | ≤ 2000
CC(=O)c1ccc2n1C(C)(C)CN(C)C21CCN(C(=O)c2ccc(C(C)(C)O)c(F)c2)CC1 [Compound 225] | > 5000
CN1CCn2c(C(=O)C(F)(F)F)ccc2C12CCN(C(=O)c1ccc(C3CCCCC3)cc1)CC2 [Compound 101] | ≤ 2000
CNC(=O)N1CCn2c(C(F)(F)F)ccc2C12CCN(C(=O)c1ccc(OC(C)C)c(OC)c1)CC2 [Compound 119] | ≤ 2000
Cc1cc(C(=O)N2CCC3(CC2)c2ccc(S(C)(=O)=O)n2CCN3C)ccc1OC(C)C [Compound 542] | > 5000
CN1CCn2c(C(F)(F)F)ccc2C12CCN(C(=O)c1cnn3c(C(F)F)cc(C4CC4)nc13)CC2 [Compound 21] | > 5000
CC(C)Oc1ccc(C(=O)N2CCC3(CC2)c2ccc(C(=O)C4(C)CC4)n2CCN3C)cc1CO [Compound 656] | ≤ 2000
CC(C)Oc1ccc(C(=O)N2CCC3(CC2)NCC(C)(C)n2c(C(F)(F)F)ccc23)cc1Cl [Compound 77] | ≤ 2000

Structure (SMILES) | IC50 [nM]
CC1(C)Cn2c(C(=O)C(F)(F)F)ccc2C2(CCN(C(=O)c3ccc(O)c(C(F)(F)F)c3)CC2)N1 [Compound 567] | ≤ 2000
COc1cc(C(=O)N2CCC3(CC2)NCC(C)n2c(C(=O)C(F)(F)F)ccc23)ccc1OCCOC(F)(F)F (stereo not shown) [Compound 171] | ≤ 2000
CCc1ccc(C(=O)N2CCC3(CC2)c2ccc(C(C)=O)n2CCN3C)cc1 [Compound 278] | > 5000
C=C(C)c1ccc(C(=O)N2CCC3(CC2)c2ccc(C(F)(F)F)n2CCN3C)cc1C [Compound 316] | ≤ 2000
CC(C)Oc1ccc(C(=O)N2CCC3(CC2)NCC(C)(C)n2c(C(F)(F)F)ccc23)cc1F [Compound 337] | ≤ 2000
COc1ccc(C(=O)N2CCC3(CC2)c2ccc(C(=O)C4(C)CC4)n2CCN3C)cc1Cl [Compound 493] | ≤ 2000
CN1CCn2c(C(F)(F)F)cc(Cl)c2C12CCN(C(=O)c1ccc(C(C)(C)O)cc1)CC2 [Compound 469] | 2000 to 5000
CN1CCn2c(C(F)(F)F)ccc2C12CCN(C(=O)c1ccc(-c3ccccc3)cc1)CC2 [Compound 659] | > 5000
COc1ccc(C(=O)N2CCC3(CC2)c2ccc(C(=O)C(F)(F)F)n2CCN3C)cc1OC(C)C [Compound 455] | ≤ 2000
CC(=O)c1ccc2n1CCN(C)C21CCN(C(=O)c2ccc(OCC(C)(C)O)c(C)c2)CC1 [Compound 681] | 2000 to 5000
C[C@H]1Cn2c(C(=O)C(F)(F)F)ccc2C2(CCN(C(=O)c3ccc(C(C)(C)O)c(F)c3)CC2)N1C [Compound 411] | ≤ 2000
Cc1cc(C(=O)N2CCC3(CC2)c2ccc(C(=O)C(F)(F)F)n2CCN3C)ccc1OCC(C)(C)O [Compound 570] | ≤ 2000
CCCOc1ccc(C(=O)N2CCC3(CC2)c2ccc(C(C)=O)n2CCN3C)cc1OC [Compound 586] | 2000 to 5000
COc1cc(C(=O)N2CCC3(CC2)c2ccc(C(F)(F)F)n2CCN3C)ccc1OC(C)C [Compound 443] | ≤ 2000
CCS(=O)(=O)c1ccc(C(=O)N2CCC3(CC2)c2ccc(C(F)(F)F)n2CCN3C)cc1C [Compound 298] | ≤ 2000
CC[C@H](C)Oc1ccc(C(=O)N2CCC3(CC2)c2ccc(C(F)(F)F)n2CCN3C)cc1OC [Compound 525] | ≤ 2000
COc1ccccc1C(=O)N1CCC2(CC1)c1ccc(C(F)(F)F)n1CCN2C [Compound 99] | 2000 to 5000
CC(C)Oc1ccc(C(=O)N2CCC3(CC2)c2c(Cl)cc(C(F)(F)F)n2CCN3C)c(F)c1 [Compound 602] | ≤ 2000
CC(C)Oc1ccc(C(=O)N2CCC3(CC2)c2ccc(Cl)n2CCN3C)cc1C(F)(F)F [Compound 599] | ≤ 2000
CN1CCn2c(C(F)(F)F)cc(F)c2C12CCN(C(=O)c1ccc(C3(O)CCC3)c(F)c1)CC2 [Compound 112] | ≤ 2000
CC(=O)c1ccc2n1CCN(C)C21CCN(C(=O)c2ccc(OC(C)C)c(C)c2)CC1 [Compound 122] | ≤ 2000
COc1ccc(C(=O)N2CCC3(CC2)c2ccc(C(=O)C(C)C)n2CCN3C)cc1Cl [Compound 413] | ≤ 2000
Cc1cc(C(=O)N2CCC3(CC2)c2ccc(C(F)(F)F)n2CCN3C)ccc1S(C)(=O)=O [Compound 515] | > 5000
C[C@H]1Cn2c(C(=O)C(F)(F)F)ccc2C2(CCN(C(=O)c3ccc(S(=O)(=O)C(C)(C)C)cc3)CC2)N1C [Compound 300] | ≤ 2000
CN1CCn2c(C(=O)C(F)(F)F)ccc2C12CCN(C(=O)c1ccc(OCC3CC3)c(F)c1)CC2 [Compound 46] | ≤ 2000

Structure (SMILES) | IC50 [nM]
CCNc1cc(C)nc2c(C(=O)N3CCC4(CC3)c3ccc(C(F)(F)F)n3CCN4C)cnn12 [Compound 737] | ≤ 2000
COc1cc(C(=O)N2CCC3(CC2)c2ccc(C(F)(F)F)n2CCN3C=O)ccc1OC(C)C [Compound 362] | > 5000
CN1CCn2c(C(F)(F)F)ccc2C12CCN(C(=O)c1cccnc1N1CCCC1)CC2 [Compound 305] | ≤ 2000
CC(=O)c1ccc2n1CCN(C)C21CCN(C(=O)c2ccc(COCC(F)(F)F)cc2)CC1 [Compound 447] | > 5000
CC(C)Oc1ccc(C(=O)N2CCC3(CC2)N[C@@H](C)Cn2c(C(F)(F)F)ccc23)cc1F [Compound 108] | 2000 to 5000
COc1ccc(-c2ccc(C(=O)N3CCC4(CC3)c3ccc(C(=O)C(F)(F)F)n3CCN4C)cc2C)cc1 [Compound 728] | ≤ 2000
CN1CCn2c(C(=O)C3(C)CC3)ccc2C12CCN(C(=O)c1ccc(S(=O)(=O)C(F)(F)F)cc1)CC2 [Compound 644] | ≤ 2000
C[C@H]1Cn2c(C(=O)C(F)(F)F)ccc2C2(CCN(C(=O)c3ccc(S(=O)(=O)C4CC4)cc3)CC2)N1C [Compound 702] | ≤ 2000
CN1CCn2c(Cl)ccc2C12CCN(C(=O)c1ccc(C3CCCCC3)cc1)CC2 [Compound 626] | ≤ 2000
CC(C)Oc1ccc(C(=O)N2CCC3(CC2)c2ccc(C(=O)C4CC4)n2CCN3C)cc1Cl [Compound 639] | ≤ 2000
COc1cc(C(=O)N2CCC3(CC2)c2ccc(C(C)=O)n2CCN3C)ccc1COCCC(F)(F)F [Compound 373] | ≤ 2000
CC(C)S(=O)(=O)c1ccc(C(=O)N2CCC3(CC2)c2ccc(C(=O)C(F)(F)F)n2C[C@H](C)N3C)cc1 [Compound 500] | ≤ 2000
COc1ccc(C(=O)N2CCC3(CC2)c2ccc(C(=O)C(F)(F)F)n2CCN3C)cc1F [Compound 121] | > 5000
Cc1cc(C(=O)N2CCC3(CC2)c2ccc(C(F)(F)F)n2CCN3C)ccc1OC(C)C [Compound 580] | ≤ 2000
COc1cc(C(=O)N2CCC3(CC2)c2ccc(C(F)(F)F)n2CCN3C)ccc1C(C)(C)O [Compound 213] | ≤ 2000
CCOC(=O)N1CCn2c(C#N)ccc2C12CCN(C(=O)c1ccc(OC(C)C)c(C)n1)CC2 [Compound 729] | ≤ 2000
CCCOc1cc(C(=O)N2CCC3(CC2)c2ccc(C(C)=O)n2CCN3C)ccc1OC [Compound 606] | > 5000
CC1(C)Cn2c(C(=O)C(F)(F)F)ccc2C2(CCN(C(=O)c3ccc(COCCC(F)(F)F)cc3)CC2)N1 [Compound 103] | ≤ 2000
CC(C)Oc1ccc(C(=O)N2CCC3(CC2)c2ccc(C(=O)C4CC4)n2CCN3C)cc1F [Compound 744] | ≤ 2000
COc1cc(C(=O)N2CCC3(CC2)NC(C)(C)Cn2c(C(=O)C(F)(F)F)ccc23)ccc1COCCC(F)(F)F [Compound 480] | ≤ 2000
COc1cc(C(=O)N2CC[C@@]3(c4ccc(C(F)(F)F)n4CCN3C)[C@@H](C)C2)ccc1OC(C)C [Compound 429] | 2000 to 5000
CN1CCn2c(C(=O)C(F)(F)F)ccc2C12CCN(C(=O)c1ccc(COc3ccccc3)cc1)CC2 [Compound 214] | ≤ 2000
CC(C)Oc1ccc(C(=O)N2CCC3(CC2)c2ccc(C(=O)C(C)C)n2CCN3C)cc1Cl [Compound 674] | ≤ 2000
